Values joined by “and” are separate entries in the source; they are usually repeats but may differ in a detail not shown here. Equal values may be shown once. Inconclusive results and toxic doses are left out. No stated cut-off is given here; in the data, active means T/C of 150% or more; inactive means T/C below 125%.
System: L1210 leukemia ip in BDF1 mice, survival T/C
Test: NCI In Vivo Anticancer Drug Screen. Data for tumor model L1210 Leukemia (intraperitoneal) in B6D2F1 (BDF1) mice
Conditions: endpoint: mean survival time, higher = longer survival
Outline: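 Transplanted-tumor mice were given test agent; controls received vehicle only. Survival readings from the two groups were divided (treated over control).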

[1] = dose: 100.0 mg/kg/injection, schedule: Q01DX009 (ip), vehicle: Klucel (hydroxypropylcellulose) (HPC)
[2] = dose: 200.0 mg/kg/injection, schedule: Q01DX009 (ip), vehicle: Klucel (hydroxypropylcellulose) (HPC)
[3] = dose: 100.0 mg/kg/injection, schedule: Q01DX001 (ip), vehicle: saline
[4] = dose: 100.0 mg/kg/injection, schedule: Q04DX003 (ip), vehicle: saline
[5] = dose: 200.0 mg/kg/injection, schedule: Q01DX001 (ip), vehicle: saline
[6] = dose: 200.0 mg/kg/injection, schedule: Q04DX003 (ip), vehicle: saline
[7] = dose: 400.0 mg/kg/injection, schedule: Q01DX001 (ip), vehicle: saline
[8] = dose: 400.0 mg/kg/injection, schedule: Q04DX003 (ip), vehicle: saline
[9] = dose: 100.0 mg/kg/injection, schedule: Q04DX003 (ip), vehicle: Klucel (hydroxypropylcellulose) (HPC)
[10] = dose: 200.0 mg/kg/injection, schedule: Q04DX003 (ip), vehicle: Klucel (hydroxypropylcellulose) (HPC)
[11] = dose: 400.0 mg/kg/injection, schedule: Q04DX003 (ip), vehicle: Klucel (hydroxypropylcellulose) (HPC)
[12] = dose: 100.0 mg/kg/injection, schedule: Q01DX009 (ip), vehicle: saline
[13] = dose: 200.0 mg/kg/injection, schedule: Q01DX009 (ip), vehicle: saline
[14] = dose: 400.0 mg/kg/injection, schedule: Q01DX009 (ip), vehicle: saline
[15] = dose: 400.0 mg/kg/injection, schedule: Q01DX009 (ip), vehicle: Klucel (hydroxypropylcellulose) (HPC)
[16] = dose: 100.0 mg/kg/injection, schedule: Q04DX003 (ip), vehicle: saline with Tween-80
[17] = dose: 200.0 mg/kg/injection, schedule: Q04DX003 (ip), vehicle: saline with Tween-80
[18] = dose: 400.0 mg/kg/injection, schedule: Q04DX003 (ip), vehicle: saline with Tween-80
[19] = dose: 100.0 mg/kg/injection, schedule: Q04DX002 (ip), vehicle: saline with Tween-80
[20] = dose: 200.0 mg/kg/injection, schedule: Q04DX002 (ip), vehicle: saline with Tween-80
[21] = dose: 400.0 mg/kg/injection, schedule: Q04DX002 (ip), vehicle: saline with Tween-80
[22] = dose: 100.0 mg/kg/injection, schedule: Q01DX009 (ip), vehicle: saline with Tween-80
[23] = dose: 200.0 mg/kg/injection, schedule: Q01DX009 (ip), vehicle: saline with Tween-80
[24] = dose: 400.0 mg/kg/injection, schedule: Q01DX009 (ip), vehicle: saline with Tween-80

Measured: T/C

C=CCNC(=S)NCc1ccc(C)cc1
inactive: [1] 96 % of control | [2] 93 % of control

O=C1OC(n2ccc3ccccc32)c2ccccc21 (configuration not stated)
inactive: [3] 105 % of control | [4] 89 % of control | [5] 96 % of control | [6] 92 % of control | [7] 102 % of control | [8] 89 % of control

CC(C)(C)NC(=O)/C=C\C(=O)O
inactive: dose: 100.0 mg/kg/injection, schedule: Q01DX009 (ip), vehicle: gum acacia 98 % of control | [9] 103 % of control | dose: 200.0 mg/kg/injection, schedule: Q01DX009 (ip), vehicle: gum acacia 95 % of control | [10] 105 % of control | dose: 400.0 mg/kg/injection, schedule: Q01DX009 (ip), vehicle: gum acacia 90 % of control | [11] 92 % of control

Cc1ccc2c(ccc[n+]2C)c1
inactive: dose: 75.0 mg/kg/injection, schedule: Q01DX001 (ip), vehicle: saline 103 % of control | dose: 150.0 mg/kg/injection, schedule: Q01DX001 (ip), vehicle: saline 106 % of control

c1ccc(CC(Cc2ccccc2)=[N+]2CCCC2)cc1
inactive: [12] 91 % of control | [4] 104 % of control | [13] 92 % of control | [6] 98 % of control | [14] 101 % of control | [8] 105 % of control

O=[N+]([O-])c1ccc(CC(O)c2ccccc2Cl)cc1 (configuration not stated)
inactive: [1] 102 % of control | [9] 101 % of control | [2] 102 % of control | [10] 101 % of control | [15] 97 % of control | [11] 97 % of control

CCCCC(CC)C(=O)N1CCOCC1 (configuration not stated)
inactive: [16] 120 % of control | [17] 114 % of control | [18] 107 % of control

C/C=C(\C)C(=O)Nc1ccc(Cl)c(Cl)c1
inactive: dose: 222.0 mg/kg/injection, schedule: Q01DX Z (ip), vehicle: methylcellulose (MC) 93 % of control | dose: 333.0 mg/kg/injection, schedule: Q01DX Z (ip), vehicle: methylcellulose (MC) 90 % of control | dose: 500.0 mg/kg/injection, schedule: Q01DX Z (ip), vehicle: methylcellulose (MC) 98 % of control

CC(=O)CCP(C)(=O)O
inactive: [19] 95 % of control | [20] 92 % of control | [21] 104 % of control

O=C1c2ccccc2-c2oc(=O)c3ccccc3c21
inactive: dose: 50.0 mg/kg/injection, schedule: Q01DX001 (ip), vehicle: carboxymethylcellulose (CMC) 96 % of control | dose: 100.0 mg/kg/injection, schedule: Q01DX001 (ip), vehicle: carboxymethylcellulose (CMC) 96 % of control | dose: 200.0 mg/kg/injection, schedule: Q01DX001 (ip), vehicle: carboxymethylcellulose (CMC) 94 % of control | dose: 400.0 mg/kg/injection, schedule: Q01DX001 (ip), vehicle: carboxymethylcellulose (CMC) 96 % of control

O=C(NCCF)NC1CS(=O)(=O)CS(=O)(=O)C1
inactive: dose: 9.5 mg/kg/injection, schedule: Q01DX001 (ip), vehicle: other 100 % of control | dose: 19.0 mg/kg/injection, schedule: Q01DX001 (ip), vehicle: other 105 % of control | dose: 38.0 mg/kg/injection, schedule: Q01DX001 (ip), vehicle: other 96 % of control

CC1C[N+](C)(C)NC1=O (configuration not stated)
inactive: [3] 98 % of control | [12] 103 % of control | [5] 103 % of control | [13] 107 % of control | [7] 92 % of control | [14] 91 % of control

O=C(COc1ccc(Cl)c(Cl)c1)Nc1ccc[n+](Cc2ccc(Cl)cc2S(=O)(=O)F)c1
inactive: [16] 97 % of control | [17] 94 % of control | [18] 101 % of control

CN(N)C(=O)Nc1ccc(Br)cc1
inactive: dose: 75.0 mg/kg/injection, schedule: Q01DX001 (ip), vehicle: carboxymethylcellulose (CMC) 104 % of control | dose: 150.0 mg/kg/injection, schedule: Q01DX001 (ip), vehicle: carboxymethylcellulose (CMC) 100 % of control | dose: 300.0 mg/kg/injection, schedule: Q01DX001 (ip), vehicle: carboxymethylcellulose (CMC) 98 % of control

COc1cc(CCNC(=O)Cc2ccc(OCc3ccccc3)cc2)ccc1OCc1ccccc1
inactive: dose: 50.0 mg/kg/injection, schedule: Q01DX009 (ip), vehicle: Klucel (hydroxypropylcellulose) (HPC) 91 % of control | [1] 89 % of control | dose: 100.0 mg/kg/injection, schedule: Q04DX003 (ip), vehicle: other 111 % of control | [2] 89 % of control | dose: 200.0 mg/kg/injection, schedule: Q04DX003 (ip), vehicle: other 105 % of control | dose: 400.0 mg/kg/injection, schedule: Q04DX003 (ip), vehicle: other 94 % of control

N#CC12C(=N)CCC1C1C=CC2C1 (configuration not stated)
inactive: dose: 6.25 mg/kg/injection, schedule: Q01DX009 (ip), vehicle: Klucel (hydroxypropylcellulose) (HPC) 100 % of control | dose: 12.5 mg/kg/injection, schedule: Q01DX009 (ip), vehicle: Klucel (hydroxypropylcellulose) (HPC) 101 % of control | [9] 89 % of control | [10] 93 % of control

CN(C(=O)c1ccc(Cl)c(Cl)c1)C(c1ccco1)P(=O)(c1ccccc1)c1ccccc1 (configuration not stated)
inactive: [22] 90 % of control | [19] 96 % of control | [23] 103 % of control | [20] 90 % of control | [24] 93 % of control | [21] 93 % of control

CCC#CC(O)(C(=O)OCC)C1CCCCC1 (configuration not stated)
inactive: dose: 100.0 mg/kg/injection, schedule: Q01DX001 (ip), vehicle: other 104 % of control | dose: 200.0 mg/kg/injection, schedule: Q01DX001 (ip), vehicle: other 96 % of control | dose: 400.0 mg/kg/injection, schedule: Q01DX001 (ip), vehicle: other 104 % of control

O=c1c(O)c(-c2ccc(O)c(O)c2)oc2cc(O)cc(O)c12
inactive: dose: 25.0 mg/kg/injection, schedule: Q01DX009 (ip), vehicle: saline 115 % of control | dose: 50.0 mg/kg/injection, schedule: Q01DX009 (ip), vehicle: saline 105 % of control | [12] 103 % of control | [13] 104 % of control and 120 % of control

CCCCCCCCC(=O)Nc1cccc(O)c1
inactive: [16] 96 % of control | [17] 101 % of control | [18] 96 % of control

CC(O)c1ccc(-c2ccccc2)cc1 (configuration not stated)
inactive: [1] 94 % of control | [9] 95 % of control | [2] 97 % of control | [10] 101 % of control | [15] 111 % of control | [11] 98 % of control

O=C(NCCCl)NC1c2ccccc2CCc2ccccc21
inactive: [1] 94 % of control | [9] 106 % of control | [2] 88 % of control | [10] 105 % of control | [15] 98 % of control | [11] 90 % of control

CC(C)(C1c2ccccc2C(=NO)c2ccccc21)[N+](=O)[O-] (configuration not stated)
inactive: [22] 98 % of control | [16] 95 % of control | [23] 94 % of control | [17] 95 % of control | [24] 94 % of control | [18] 98 % of control

CCOC(=O)Cc1cc(O)ccc1O
inactive: dose: 100.0 mg/kg/injection, schedule: Q01DX001 (ip), vehicle: saline with Tween-80 109 % of control | dose: 200.0 mg/kg/injection, schedule: Q01DX001 (ip), vehicle: saline with Tween-80 89 % of control | dose: 400.0 mg/kg/injection, schedule: Q01DX001 (ip), vehicle: saline with Tween-80 91 % of control

COc1c2c(cc3c1N(C)C(=O)CC3C)C(C)CC(=O)N2 (configuration not stated)
inactive: dose: 75.0 mg/kg/injection, schedule: Q04DX003 (ip), vehicle: Klucel (hydroxypropylcellulose) (HPC) 98 % of control

C(/C=C\c1ccccc1)=Nc1ccccc1
inactive: [16] 95 % of control | [17] 95 % of control | [18] 92 % of control

Source: PubChem BioAssay AID248 (DTP/NCI, 2004)
